From DBAASP
In brackets after ≈: the same amount, converted by molar mass. Several values for one entry are separate records, joined by “and”; a condition that tells them apart may be missing. Identical values can stand only once.

Tests used:
Assay in all cases: ≥ marks a high value that may be exact or a test limit, other limits are often not marked, values filed in µg/mL are converted to µM
[1] = tested on: Escherichia coli MG1655
[2] = tested on: Bacillus subtilis 168 HT
[3] = tested on: Enterococcus faecalis ATCC 29212
[4] = tested on: Salmonella enterica subsp. enterica serovar Choleraesuis CVCC 503
[5] = tested on: Staphylococcus aureus
[6] = tested on: Salmonella enterica subsp. enterica serovar Typhimurium C77-31
[7] = tested on: Streptococcus agalactiae
[8] = tested on: Staphylococcus aureus ATCC 43300
[9] = tested on: Salmonella enterica subsp. enterica serovar Pullorum C79-13
[10] = tested on: Escherichia coli UB1005
[11] = tested on: Salmonella enterica subsp. enterica serovar Typhimurium ATCC 14028
[12] = tested on: Staphylococcus epidermidis ATCC 12228
[13] = tested on: Staphylococcus aureus ATCC 29213
[14] = tested on: Escherichia coli ATCC 25922
[15] = tested on: Staphylococcus aureus ATCC 700699
[16] = tested on: Klebsiella pneumoniae ATCC 700603
[17] = tested on: Staphylococcus aureus ATCC 33591
[18] = tested on: Pseudomonas aeruginosa ATCC 27853
[19] = tested on: Burkholderia thailandensis
[20] = tested on: Bacillus subtilis ATCC 9372
[21] = tested on: Bacillus anthracis Sterne 34F2

`CC(C)C[C@H](NC(=O)[C@H](Cc1ccccc1)NC(=O)[C@H](CS)NC(=O)[C@@H](NC(=O)[C@H](CC(C)C)NC(=O)[C@H](CCCN=C(N)N)NC(=O)[C@H](Cc1c[nH]c2ccccc12)NC(=O)[C@@H](N)CCCN=C(N)N)C(C)C)C(=O)N[C@@H](CS)C(=O)N[C@@H](CCCN=C(N)N)C(=O)N[C@@H](CCCN=C(N)N)C(=O)N[C@@H](CCCCN)C(=O)N[C@@H](CCCCN)C(=O)N[C@H](C(=O)O)C(C)C` [RWRLVCFLCRRKKV] gave an MIC [1] of 17.2 µM (≈ 32.1 µg/mL) and an MIC [2] of 8.6 µM (≈ 16 µg/mL).

`CC[C@H](C)[C@H](N)C(=O)N[C@H](C(=O)N[C@@H](CS)C(=O)N[C@@H](CCCN=C(N)N)C(=O)N[C@@H](CCCCN)C(=O)N1CCC[C@H]1C(=O)N[C@H](C(=O)N[C@H](C(=O)N[C@@H](CS)C(=O)N[C@@H](CCCN=C(N)N)C(=O)N[C@@H](CCCCN)C(=O)N1CCC[C@H]1C(=O)N[C@H](C(=O)N[C@H](C(=O)N[C@@H](CS)C(=O)N[C@@H](CCCN=C(N)N)C(=O)N[C@@H](CCCCN)C(=O)N1CCC[C@H]1C(=O)N[C@H](C(=O)N[C@H](C(=O)N[C@@H](CS)C(=O)N[C@@H](CCCN=C(N)N)C(=O)N[C@@H](CCCCN)C(=O)N1CCC[C@H]1C(=O)N[C@H](C(=O)N[C@H](C(N)=O)[C@@H](C)CC)[C@@H](C)CC)[C@@H](C)CC)[C@@H](C)CC)[C@@H](C)CC)[C@@H](C)CC)[C@@H](C)CC)[C@@H](C)CC)[C@@H](C)CC` [IICRKPIICRKPIICRKPIICRKPII] showed an MIC [3] of 32 µM (≈ 98.8 µg/mL), an MIC [4] of 4 µM (≈ 12.3 µg/mL) and an MIC [5] of 16 µM (≈ 49.4 µg/mL). The MIC [6] was 2 µM (≈ 6.17 µg/mL), the MIC [7] was 16 µM (≈ 49.4 µg/mL) and the MIC [8] was 16 µM (≈ 49.4 µg/mL). For the same compound, the MIC [9] was 8 µM (≈ 24.7 µg/mL), the MIC [10] was 1 µM (≈ 3.09 µg/mL) and the MIC [11] was 2 µM (≈ 6.17 µg/mL). The MIC [12] was 16 µM (≈ 49.4 µg/mL) and the MIC [13] was 32 µM and 64 µM.

`CC[C@H](C)[C@H](NC(=O)[C@H](C)NC(=O)[C@@H](NC(=O)[C@@H](NC(=O)CN)C(C)C)C(C)C)C(=O)N[C@@H](CC(C)C)C(=O)N[C@@H](CCCCN)C(=O)NCC(=O)N[C@@H](C)C(=O)N[C@@H](C)C(=O)N[C@@H](CCCCN)C(=O)N[C@@H](CC(=O)O)C(=O)N[C@H](C(=O)N[C@@H](C)C(=O)NCC(=O)N[C@@H](Cc1cnc[nH]1)C(=O)N[C@@H](CC(C)C)C(=O)N[C@@H](C)C(=O)N[C@@H](CO)C(=O)N[C@@H](CCCCN)C(=O)N[C@H](C(=O)N[C@@H](CCSC)C(=O)N[C@@H](CC(N)=O)C(=O)N[C@@H](CCCCN)C(=O)N[C@@H](CC(C)C)C(N)=O)C(C)C)[C@@H](C)CC` [GVVAILKGAAKDIAGHLASKVMNKL] gave an MIC [14] of 50 µM (≈ 125 µg/mL), an MIC [15] of at least 100 µM and an MIC [16] of 50 µM (≈ 125 µg/mL). It also gave an MIC [17] of at least 100 µM, an MIC [18] of over 100 µM and an MIC [13] of over 100 µM.

In the case of `CSCC[C@H](NC(=O)[C@H](Cc1ccccc1)NC(=O)CNC(=O)CNC(=O)[C@H](Cc1ccc(O)cc1)NC(=O)[C@H](CCCN=C(N)N)NC(=O)[C@H](CCCCN)NC(=O)[C@H](CCC(=O)O)NC(=O)[C@H](CCSC)NC(=O)[C@H](CCC(=O)O)NC(=O)[C@@H]1CCCN1C(=O)[C@@H]1CCCN1C(=O)[C@H](CCC(=O)O)NC(=O)[C@H](CCCCN)NC(=O)[C@H](CO)NC(=O)[C@H](Cc1ccc(O)cc1)NC(=O)[C@H](CO)NC(=O)[C@H](CCC(=O)O)NC(=O)CNC(=O)[C@H](CCC(=O)O)NC(=O)[C@H](CCC(=O)O)NC(=O)[C@H](CCC(=O)O)NC(=O)[C@H](CO)NC(=O)[C@@H]1CCCN1C(=O)[C@H](CC(C)C)NC(=O)[C@@H]1CCCN1C(=O)[C@H](CCC(=O)O)NC(=O)[C@H](C)NC(=O)[C@H](Cc1ccccc1)NC(C)=O)C(N)=O` [FAEPLPSEEEGESYSKEPPEMEKRYGGFM], the MIC [19] is reported as at least 50 µM, the MIC [20] is reported as at least 100 µM and the MIC [21] is reported as at least 100 µM.

Compound `CSCC[C@H](NC(=O)[C@H](CCCCN)NC(=O)[C@H](CCCCN)NC(=O)[C@H](CC(C)C)NC(=O)[C@H](CC(C)C)NC(=O)[C@H](CCCN=C(N)N)NC(=O)[C@H](CCCN=C(N)N)NC(=O)[C@H](CCCCN)NC(=O)[C@H](C)N)C(=O)N[C@@H](CCCCN)C(=O)O` [AKRRLLKKMK] has an MIC [1] of at least 101 µM and an MIC [2] of at least 101 µM.

With `CC[C@H](C)[C@H](NC(=O)[C@H](CC(=O)O)NC(=O)[C@H](CCCCN)NC(=O)[C@H](C)NC(=O)[C@H](C)NC(=O)[C@H](C)NC(=O)[C@H](CCCCN)NC(=O)[C@H](CC(C)C)NC(=O)[C@@H](NC(=O)[C@H](CC(=O)O)NC(=O)[C@@H](NC(=O)[C@@H](NC(=O)CN)C(C)C)C(C)C)[C@@H](C)CC)C(=O)N[C@@H](C)C(=O)NCC(=O)N[C@@H](Cc1cnc[nH]1)C(=O)N[C@@H](CC(C)C)C(=O)N[C@@H](C)C(=O)N[C@@H](CO)C(=O)N[C@@H](CCCCN)C(=O)N[C@H](C(=O)N[C@@H](CCSC)C(=O)N[C@@H](CC(N)=O)C(=O)N[C@@H](CCCCN)C(=O)N[C@@H](CC(C)C)C(N)=O)C(C)C` [GVVDILKAAAKDIAGHLASKVMNKL] the MIC [14] was 25 µM (≈ 64.1 µg/mL), the MIC [15] was at least 100 µM and the MIC [16] was 50 µM (≈ 128 µg/mL). The MIC [17] was at least 100 µM, the MIC [18] was 100 µM (≈ 256 µg/mL) and the MIC [13] was over 100 µM.

Compound `CC[C@H](C)[C@H](NC(=O)CNC(=O)[C@@H](NC(=O)[C@H](CCCCN)NC(=O)[C@H](CCCCN)NC(=O)CNC(=O)[C@@H](NC(=O)[C@H](CCCCN)NC(=O)[C@H](Cc1c[nH]c2ccccc12)NC(=O)[C@H](CCCCN)NC(=O)[C@H](CCSC)NC(C)=O)[C@@H](C)CC)[C@@H](C)CC)C(=O)NCC(=O)N[C@@H](CCCCN)C(=O)N[C@@H](Cc1ccccc1)C(=O)N[C@@H](CC(C)C)C(=O)N[C@@H](Cc1cnc[nH]1)C(=O)N[C@@H](CO)C(=O)N[C@@H](C)C(=O)N[C@@H](CCCCN)C(=O)N[C@@H](CCCCN)C(=O)N[C@@H](Cc1ccccc1)C(=O)N[C@@H](CC(N)=O)C(N)=O` [MKWKIGKKIGIGKFLHSAKKFN] has an MIC [19] of at least 50 µM, an MIC [20] of at least 100 µM and an MIC [21] of at least 100 µM.

`CC(C)[C@H](NC(=O)[C@H](CCC(N)=O)NC(=O)[C@H](CS)NC(=O)[C@H](C)NC(=O)[C@H](CCCCN)NC(=O)[C@H](CCCN=C(N)N)NC(=O)[C@H](CC(N)=O)NC(=O)[C@H](CCCCN)NC(=O)[C@H](CCCCN)NC(=O)[C@H](Cc1c[nH]c2ccccc12)NC(=O)[C@@H](NC(=O)[C@H](CCCCN)NC(=O)CNC(=O)[C@@H](N)CC(N)=O)[C@@H](C)O)C(=O)N[C@@H](CCCCN)C(=O)O` [NGKTWKKNRKACQVK] gave an MIC [1] of at least 71.5 µM and an MIC [2] of at least 71.5 µM.

`CC(C)[C@H](N)C(=O)N[C@@H](CS)C(=O)N[C@@H](CCCN=C(N)N)C(=O)N[C@@H](CCCCN)C(=O)N1CCC[C@H]1C(=O)N[C@H](C(=O)N[C@H](C(=O)N[C@@H](CS)C(=O)N[C@@H](CCCN=C(N)N)C(=O)N[C@@H](CCCCN)C(=O)N1CCC[C@H]1C(=O)N[C@H](C(=O)N[C@H](C(=O)N[C@@H](CS)C(=O)N[C@@H](CCCN=C(N)N)C(=O)N[C@@H](CCCCN)C(=O)N1CCC[C@H]1C(=O)N[C@H](C(N)=O)C(C)C)C(C)C)C(C)C)C(C)C)C(C)C` [VCRKPVVCRKPVVCRKPV] gave an MIC [14] of 8 µM (≈ 16.5 µg/mL), an MIC [3] of over 64 µM and an MIC [4] of at least 64 µM. It also gave an MIC [5] of over 64 µM, an MIC [6] of 16 µM (≈ 33.1 µg/mL) and an MIC [7] of at least 64 µM. For the same compound, the MIC [8] was over 64 µM, the MIC [9] was at least 64 µM and the MIC [10] was 16 µM (≈ 33.1 µg/mL). The MIC [11] was 8 µM (≈ 16.5 µg/mL), the MIC [12] was over 64 µM and the MIC [13] was over 64 µM.
